Assay results taken from ChEMBL document CHEMBL3864189, “Carboxamide Spleen Tyrosine Kinase (Syk) Inhibitors: Leveraging Ground State Interactions To Accelerate Optimization” (ACS Med Chem Lett, 2016).
pIC50: −log10 of the molar value. Calls of active or inactive are those of the source. The rule behind the calls is not given here.

Columns and labels:
[1] = test system: Salmonella typhimurium; test: Genotoxicity in Salmonella typhimurium TA97a in presence of rat s9 fraction by Ames test; type: toxicity, organism-based; conditions: salmonella enterica subsp. enterica serovar typhimurium
[2] = Unbound plasma clearance in po dosed rat; type: ADME, organism-based; conditions: in vivo
[3] = test system: Rattus norvegicus; test: Antiarthritic activity in collagen-induced arthritis rat model at 3 mg/kg, po administered qd; type: functional, organism-based
[4] = test system: Salmonella typhimurium; test: Genotoxicity in Salmonella typhimurium TA97a by Ames test; type: toxicity, organism-based; conditions: salmonella enterica subsp. enterica serovar typhimurium
[5] = Oral bioavailability in rat; type: ADME, organism-based; conditions: in vivo
[6] = target: T1, Tyrosine-protein kinase SYK (Homo sapiens, UniProt P43405); test: Inhibition of GST-tagged full length human SYK (1 to 635 end residues) expressed in baculovirus expression system preincubated for 10 mins followed by Blk/Lyntide substrate and ATP addition measured after 45 mins TR-FRET assay
[7] = target: T1, Tyrosine-protein kinase SYK; test: Inhibition of GST-tagged full length human SYK (1 to 635 end residues) expressed in baculovirus expression system at 10 uM preincubated for 10 mins followed by Blk/Lyntide substrate and ATP addition measured after 45 mins TR-FRET assay relative to control

CL free [2]	Compound	Activity [1]	further results
–	C[C@H](N)CNc1cnc(C(N)=O)c(-c2cc3ccccc3[nH]2)n1	Non-Toxic	–
710 mL/min/kg	Cc1cc(C)nc(Nc2cc(N[C@@H]3CCCC[C@@H]3N)cnc2C(N)=O)c1	–	Activity [3]: Active; Activity [4]: Toxic
–	NC(=O)c1ncc(N[C@@H]2CCCC[C@@H]2N)cc1/C=C/c1ccccc1	Non-Toxic	–
100 mL/min/kg	COc1cccc2[nH]c(-c3nc(N[C@@H]4CCOC[C@@H]4N)cnc3C(N)=O)cc12	Non-Toxic	–
–	C[C@H](N)CNc1cnc(C(N)=O)c(-c2cc3ccccc3o2)n1	Non-Toxic	–
–	NC(=O)c1ncc(N[C@@H]2CCCC[C@@H]2N)cc1COc1ccccc1	Non-Toxic	–
–	NC(=O)c1ncc(N[C@@H]2CCCC[C@@H]2N)cc1C#Cc1ccccc1	Non-Toxic	–
255 mL/min/kg	NC(=O)c1ncc(N[C@@H]2CCCC[C@@H]2N)nc1-c1cc2ccccc2[nH]1	Non-Toxic	bioavailability [5]: 19%
–	Cn1cc(-c2cc(N[C@@H]3CCCC[C@@H]3N)cnc2C(N)=O)cn1	Non-Toxic	pIC50 [6]: < 5.00; inhibition [7]: 9%
–	C[C@H](N)CNc1cnc(C(N)=O)c(-c2cnn(C)c2)n1	Non-Toxic	–
